Results from patent publication US20230167058A1, “GPX4 COMPOUNDS AND COMPOSITIONS AND METHODS OF TREATMENT USING SAME” (THE TRUSTEES OF COLUMBIA UNIVERSITY IN THE CITY OF NEW YORK, priority 2020, published 2023).
Residue numbers refer to the chain shown, from its start.

Key:
HT1080 cells = test: Single-point ferroptosis test, cellular viability (CellTiter-Glo); type: cell-based, human; conditions: 125 μM LOC1886, 48 h
Procedure: 1000 cells of each HT-1080 or G401 cell line were plated 36 μL per well of a 384-well plate on day 1. The remaining cells were immediately tested for Western Blot (to monitor GPX4 protein overexpression level). For dose response curves, compounds were dissolved in DMSO and a 12-point, twofold dilution series was prepared. The compounds were then diluted 1:50 in media and 4 μL was added to each well of the plates on day 2. Final concentrations of the compounds on the 384-well plate started from 2 μM for RSL3/ML162 and 20 μM for IKE/FIN56/FINO2. For single-point ferroptosis test, HT1080 cells were treated either with 12.5 μM RSL3 or 125 μM LOC1886, with or without supplementation of 2 μM Fer-1. After 48 h of treatment, the viability of cells was measured using 1:1 dilution of the CellTiter-Glo luminescent reagent (Promega G7573) with media, which was read on a Victor 5 plate reader after 10 min of shaking at room temperature on day 4. The intensity of luminescence was normalized to that of DMSO control. Results were quantified using GraphPad Prism 9. Based on the dose-response curve of viability, area under curves were calculated and reported in bar graph formats with standard errors using GraphPad Prism 9.

GPX4^U46C = biological target: T1, GPX4^U46C (Homo sapiens, UniProt P36969, U73C); test: Inhibition of the activity of purified GPX4^U46C protein (NADPH-coupled); type: biochemical; conditions: 20 μM RSL3 vs DMSO
T1 construct: His6 (N, cleaved yes); made in house; host or cells: E. coli BL21-Gold (DE3), M9 minimal medium with 15NH4Cl
T1 sequence (P36969 33-197 U73C): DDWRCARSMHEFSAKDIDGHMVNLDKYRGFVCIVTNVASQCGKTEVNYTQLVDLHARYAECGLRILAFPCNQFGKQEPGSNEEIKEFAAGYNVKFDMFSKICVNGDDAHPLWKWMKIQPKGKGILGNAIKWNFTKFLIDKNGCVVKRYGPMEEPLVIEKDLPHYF
Procedure: Similar to the determination of cellular GPX4-specific activity, by coupling the oxidation of NADPH to NADP+ by oxidized glutathione produced by GPX4 in the presence of glutathione reductase, GPX4^U46C activity was assessed by measuring the decrease in NADPH (absorbance at 340 nm). GPX4 reaction buffer was prepared by adding 0.05 U/mL glutathione reductase, 210 μM GSH, 250 μM NADPH, 50 μM Cumene-OOH into 50 mM Tris HCl, pH 8.0, 0.5 mM EDTA. 15 μM His-tagged-GPX4^U46C pre-incubated with DMSO (vehicle) or 20 μM RSL3 was added to the GPX4 reaction buffer and the absorbance at 340 nm was monitored for the following 10 min. Results were quantified using GraphPad Prism 9.

GPX4^allCys(−) A46C = biological target: T2, GPX4^allCys(−) A46C (Homo sapiens, UniProt P36969, C102S/C134A/C175A/C37A/C64S/C93A/U73C); test: Intact protein MALDI MS analysis, GPX4^allCys(−) A46C; type: binding; conditions: only cys46 present
T2 construct: His (cleaved yes); made in house; host or cells: E. coli BL21-Gold (DE3)
T2 sequence (P36969 33-197 C37A/C64S/U73C/C93A/C102S/C134A/C175A): T1 sequence (P36969 33-197 U73C) with C5A, C32S, C61A, C70S, C102A, C143A
Procedure: GPX4^U46C or GPX4^AllCys(−)-A46C protein was pre-incubated with DMSO control or the inhibitor to be tested prior to MALDI MS analysis: 50 μM GPX4 protein was incubated with 500 μM inhibitors in FPLC buffer (100 mM Tris pH 8.0, 300 mM NaCl, and 3 mM TCEP) with 5% DMSO at RT for 1 hour before transferring to 4° C. overnight.
1 μl of the ligand-free protein (pre-incubated with DMSO) or protein-inhibitor complex (pre-incubated with the inhibitor to be tested) was mixed with 9 μl of 10 mg/ml sinapinic acid in the matrix solution (70:30 water/acetonitrile, with 0.1% TFA). 1.0 μl of the final mix was deposited onto the target carrier and allowed to air dry. MALDI spectrum was recorded using Bruker ultrafleXtreme MALDI-TOF instrument. The range of m/z detection and suppression was adjusted to accommodate the molecular weight of target protein. 2000 Hz and 50% intensity was applied for the laser setting. For each sample, five cumulative spectra were collected and the sum was recorded for analysis. All MALDI spectra of protein-inhibitor complex were compared with ligand-free protein to determine the mass shift. Mass shifts were aligned with the mass of potential staying group of each inhibitor to conclude covalent binding.

Row | Structure (SMILES) | induction of ferroptosis (HT1080 cells) | enzymatic activity of GPX4^U46C after incubation (GPX4^U46C) | covalent modification of cys46 (mass shift) by MALDI MS (GPX4^allCys(−) A46C)
1 | COc1cccc2[nH]c(C(=O)n3ccnc3)cc12 [LOC1886] | able to induce ferroptosis to HT1080 cells | – | –
2 | COC(=O)c1ccc([C@@H]2c3[nH]c4ccccc4c3C[C@@H](C(=O)OC)N2C(=O)CCl)cc1 [RSL3, (1S, 3R)-RSL3] | – | inhibited the capability of GPX4 to reduce phospholipid hydroperoxides | no mass shift
